Laboratory results taken from patent US11420970B1 (NOVARTIS AG, priority 2019, dated 2022).
Like-named read-outs stand apart in the source and are kept apart here.

Molecular target: NSD2 [1-1365] (Homo sapiens (Human), UniProt O96028)
Experiment: LC-MS/MS-based NSD2 enzymatic assay (SAH production)
Type: biochemical
Settings: read-out: NSD2 IC50
Experimental: LC-MS/MS-Based NSD2 Enzymatic Assay
This assay employed LC-MS/MS technology to monitor the SAH production from the NSD2 enzymatic reaction. The enzymatic reaction was performed in white proxiplate plus 384-well microplate (Perkin Elmer). The reaction mixture (10 μL) were composed of 8 nM NSD2 [1-1365], […] SAM (USB, 10601) and 400 nM nucleosome (purified from mouse liver) in reaction buffer (20 mM Tris-HCl, pH at 8.0, 0.01% Tween 20, 10 mM MgCl2, 50 mM NaCl, 1 mM DTT, 1 mM TCEP (pH7.5)). After 90 min incubation at room temperature, 3 μL quenching solution containing 2.5% TFA with 320 nM d4-SAH was added to stop the reaction.
For the inhibition assay, compound solutions were transferred into the wells by Mosquito™ (TTP LabTech). The inhibition assays were carried out by preincubating various concentrations of the inhibitor with 5 uL reaction mixture containing 16 nM NSD2 [1-1365] and 2 uM SAM (USB, 10601) in reaction buffer. After 20 min preincubation, 5 uL solution containing 800 nM nucleosome (purified from mouse liver) in reaction buffer was added to initiate the reaction. The reaction was stopped by 3 μL quenching solution containing 2.5% TFA with 320 nM d4-SAH after 90 min.
The SAH production from the enzymatic assays were monitored by LC-MS/MS on an API 4000 triple quadrupole mass spec with Turbolon Spray (Applied Biosystem) coupled with Prominenece UFLC(Shimazu). Liquid chromatography was performed on a Chromolith FastGradient HPLC column (RP-18e, 25-2 mm, from Merck) at a flow rate of 0.8 ml/min. The column was connected directly to the turbo ion electrospray operating in the positive-ion mode. Mobile phase A is 0.1% FA and 2% methanol in water and mobile phase B is 0.1% FA in ACN. Injection volume was 3 μl and the autosampler was kept at 4 degree. SAH and d4-SAH were simultaneously monitored. Data were acquired and processed by Analyst software.
To quantify the formed SAH, d4-SAH was added as internal standard (IS). A series of SAH (Sigma, A9384) solution at varying concentration (1-500 nM in reaction buffer) was mixed with quenching solution mentioned above. Then LC-MS/MS was carried out on API 4000 LC/MS/MS system to detect both SAH and d4-SAH. The plot of SAH peak area/IS peak area vs SAH concentration was used to generate the normalization factor of SAH. The SAH production from real enzymatic reaction was derived from the standard curve of SAH. The down-limit of our system for the detection of SAH is around 1-2 nM, and the linear range can reach up to 500 nM.

[1] = NSD2 biochemical activity, class symbols

NSD2 [1-1365], sequence (O96028 whole entry): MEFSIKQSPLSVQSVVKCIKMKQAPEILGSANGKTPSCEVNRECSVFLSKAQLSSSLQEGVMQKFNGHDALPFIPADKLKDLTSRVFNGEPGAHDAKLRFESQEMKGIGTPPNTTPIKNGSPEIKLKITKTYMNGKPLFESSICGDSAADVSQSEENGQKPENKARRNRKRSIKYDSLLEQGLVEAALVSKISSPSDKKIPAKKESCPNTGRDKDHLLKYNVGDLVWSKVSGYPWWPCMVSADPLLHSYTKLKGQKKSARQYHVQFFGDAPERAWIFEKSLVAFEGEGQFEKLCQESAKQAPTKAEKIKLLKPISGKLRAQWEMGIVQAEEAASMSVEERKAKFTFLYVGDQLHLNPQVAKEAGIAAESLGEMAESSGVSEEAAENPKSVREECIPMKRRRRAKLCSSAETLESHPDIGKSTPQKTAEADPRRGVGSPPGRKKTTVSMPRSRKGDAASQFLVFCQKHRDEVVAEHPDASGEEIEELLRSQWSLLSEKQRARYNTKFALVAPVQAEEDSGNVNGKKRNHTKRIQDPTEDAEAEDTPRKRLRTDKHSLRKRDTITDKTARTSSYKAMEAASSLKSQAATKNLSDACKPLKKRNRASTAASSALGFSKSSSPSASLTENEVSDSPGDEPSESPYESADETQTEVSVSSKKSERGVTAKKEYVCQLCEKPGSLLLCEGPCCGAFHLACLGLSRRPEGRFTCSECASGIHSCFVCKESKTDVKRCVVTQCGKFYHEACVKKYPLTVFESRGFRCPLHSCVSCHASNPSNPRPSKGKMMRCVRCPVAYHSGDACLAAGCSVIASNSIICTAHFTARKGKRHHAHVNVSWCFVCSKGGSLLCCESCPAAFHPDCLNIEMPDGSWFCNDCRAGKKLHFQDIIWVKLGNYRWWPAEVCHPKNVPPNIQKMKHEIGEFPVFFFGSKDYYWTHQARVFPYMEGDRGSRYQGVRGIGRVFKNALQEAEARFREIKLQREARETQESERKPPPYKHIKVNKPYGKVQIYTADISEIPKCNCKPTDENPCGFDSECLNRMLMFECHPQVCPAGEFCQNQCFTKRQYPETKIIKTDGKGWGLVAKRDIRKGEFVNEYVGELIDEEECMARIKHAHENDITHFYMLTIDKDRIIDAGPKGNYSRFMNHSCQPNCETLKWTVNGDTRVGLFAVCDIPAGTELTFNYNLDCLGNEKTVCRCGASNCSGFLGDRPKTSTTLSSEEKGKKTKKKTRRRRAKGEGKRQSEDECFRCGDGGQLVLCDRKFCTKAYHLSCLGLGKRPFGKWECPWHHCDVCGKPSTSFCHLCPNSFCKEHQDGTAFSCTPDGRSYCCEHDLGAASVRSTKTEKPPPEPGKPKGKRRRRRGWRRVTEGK

## CC1CCCN1C(=O)C1(N)CCCN(c2cnc(-c3ccc(F)c(F)c3)cc2Cn2cnc3c(N)ncnc32)C1 (stereo not drawn) [Example 88, (3-amino-1-(4-((6-amino-9H-purin-9-yl)methyl)-6-(3,4-difluorophenyl)pyridin-3-yl)piperidin-3-yl)(2-methylpyrrolidin-1-yl)methanone]
[1]
  IC50: 10 to 1000 nM

## Nc1ncnc2c1ncn2Cc1cc(-c2ccc(F)c(F)c2)ncc1N1CCCC(N)(C(=O)C2CCCC2)C1 (stereo not drawn) [Example 100, (3-amino-1-(4-((6-amino-9H-purin-9-yl)methyl)-6-(3,4-difluorophenyl)pyridin-3-yl)piperidin-3-yl)(cyclopentyl)methanone]
[1]
  IC50: 1 to 10 nM

## Nc1ncnc2c1ncn2Cc1cc(-c2ccc(F)c(F)c2)ncc1N1CCCC(N)(C(=O)C2CCOC2)C1 (stereo not drawn) [Example 111, (3-amino-1-(4-((6-amino-9H-purin-9-yl)methyl)-6-(3,4-difluorophenyl)pyridin-3-yl)piperidin-3-yl)(tetrahydrofuran-3-yl)methanone]
[1]
  IC50: > 1000 nM

## CC1(C(=O)C2(N)CCCN(c3cnc(-c4ccc(F)c(F)c4)cc3Cn3cnc4c(N)ncnc43)C2)COC1 (stereo not drawn) [Example 112, (3-amino-1-(4-((6-amino-9H-purin-9-yl)methyl)-6-(3,4-difluorophenyl)pyridin-3-yl)piperidin-3-yl)(3-methyloxetan-3-yl)methanone]
[1]
  IC50: > 1000 nM

## COc1c(-c2ccc(F)c(F)c2)ncc(N2CCC[C@](N)([C@H](O)C(F)F)C2)c1Cn1cnc2c(N)ncnc21 [Example 118, (S)-1-((R)-3-amino-1-(4-((6-amino-9H-purin-9-yl)methyl)-6-(3,4-difluorophenyl)-5-methoxypyridin-3-yl)piperidin-3-yl)-2,2-difluoroethan-1-ol]
[1]
  IC50: 1 to 10 nM

## Nc1ncnc2c1ncn2Cc1cc(-c2cc(F)c(C(F)F)cc2F)ncc1N1CCC[C@](N)([C@H](O)C(F)F)C1 [Example 120, (S)-1-((R)-3-amino-1-(4-((6-amino-9H-purin-9-yl)methyl)-6-(4-(difluoromethyl)-2,5-difluorophenyl)pyridin-3-yl)piperidin-3-yl)-2,2-difluoroethan-1-ol]
[1]
  IC50: 1 to 10 nM

## Cc1cc(C(F)F)c(F)cc1-c1cc(Cn2cnc3c(N)ncnc32)c(N2CCC[C@](N)([C@@H](O)C(F)F)C2)cn1 [Example 129, (R)-1-((R)-3-amino-1-(4-((6-amino-9H-purin-9-yl)methyl)-6-(4-(difluoromethyl)-5-fluoro-2-methylphenyl)pyridin-3-yl)piperidin-3-yl)-2,2-difluoroethan-1-ol]
[1]
  IC50: 1 to 10 nM

## COc1ccc(-c2ncc(N3CCC[C@](N)([C@H](O)C(F)F)C3)c(Cn3cnc4c(N)ncnc43)c2F)c(F)c1 [Example 135, (S)-1-((R)-3-amino-1-(4-((6-amino-9H-purin-9-yl)methyl)-5-fluoro-6-(2-fluoro-4-methoxyphenyl)pyridin-3-yl)piperidin-3-yl)-2,2-difluoroethan-1-ol]
[1]
  IC50: 10 to 1000 nM

## Nc1ncnc2c1ncn2Cc1cc(-c2ccc(C(F)F)cc2F)ncc1N1CCC[C@](N)([C@H](O)C(F)F)C1 [Example 137, (S)-1-((R)-3-amino-1-(4-((6-amino-9H-purin-9-yl)methyl)-6-(4-(difluoromethyl)-2-fluorophenyl)pyridin-3-yl)piperidin-3-yl)-2,2-difluoroethan-1-ol]
[1]
  IC50: 10 to 1000 nM

## Cc1cc(C(F)F)ccc1-c1cc(Cn2cnc3c(N)ncnc32)c(N2CCC[C@](N)([C@H](O)C(F)F)C2)cn1 [Example 140, (S)-1-((R)-3-amino-1-(4-((6-amino-9H-purin-9-yl)methyl)-6-(4-(difluoromethyl)-2-methylphenyl)pyridin-3-yl)piperidin-3-yl)-2,2-difluoroethan-1-ol]
[1]
  IC50: 10 to 1000 nM

## Nc1ncnc2c1ncn2Cc1c(N2CCC[C@](N)([C@H](O)C(F)F)C2)cnc(-c2ccc(F)cc2F)c1F [Example 142, (S)-1-((R)-3-amino-1-(4-((6-amino-9H-purin-9-yl)methyl)-6-(2,4-difluorophenyl)-5-fluoropyridin-3-yl)piperidin-3-yl)-2,2-difluoroethan-1-ol]
[1]
  IC50: 10 to 1000 nM

## Cn1ncc2cc(-c3cc(Cn4cnc5c(N)ncnc54)c(N4CCC[C@](N)([C@H](O)C(F)F)C4)cn3)c(F)cc21 [Example 143, (S)-1-((R)-3-amino-1-(4-((6-amino-9H-purin-9-yl)methyl)-6-(6-fluoro-1-methyl-1H-indazol-5-yl)pyridin-3-yl)piperidin-3-yl)-2,2-difluoroethan-1-ol]
[1]
  IC50: 10 to 1000 nM

## COc1cc(F)c(-c2ncc(N3CCC[C@](N)([C@H](O)C(F)F)C3)c(Cn3cnc4c(N)ncnc43)c2F)cc1F [Example 149, (S)-1-((R)-3-amino-1-(4-((6-amino-9H-purin-9-yl)methyl)-6-(2,5-difluoro-4-methoxyphenyl)-5-fluoropyridin-3-yl)piperidin-3-yl)-2,2-difluoroethan-1-ol]
[1]
  IC50: 10 to 1000 nM

## Nc1ncnc2c1ncn2Cc1cc(-c2ccc3c(c2)CCO3)ncc1N1CCC[C@](N)(c2cccc(Cl)n2)C1 [Example 185, (R)-9-((5-(3-amino-3-(6-chloropyridin-2-yl)piperidin-1-yl)-2-(2,3-dihydrobenzofuran-5-yl)pyridin-4-yl)methyl)-9H-purin-6-amine]
  IC50: 10 to 1000 nM

## Nc1ncnc2c1ncn2Cc1cc(-c2ccc(F)cc2)ncc1N1CCCC(N)(c2ccc(F)cn2)C1 (stereo not drawn) [Example 189, 9-((5-(3-amino-3-(5-fluoropyridin-2-yl)piperidin-1-yl)-2-(4-fluorophenyl)pyridin-4-yl)methyl)-9H-purin-6-amine]
  IC50: 10 to 1000 nM

## Nc1ncnc2c1ncn2Cc1cc(C2CC2)ncc1N1CCC[C@](N)(c2cccc(Cl)n2)C1 [Example 204, (R)-9-((5-(3-amino-3-(6-chloropyridin-2-yl)piperidin-1-yl)-2-cyclopropylpyridin-4-yl)methyl)-9H-purin-6-amine]
  IC50: 10 to 1000 nM

## COc1ccc(-c2cc(Cn3cnc4c(N)ncnc43)c(N3CCC[C@](N)(c4ccc(F)c(C)n4)C3)cn2)cc1F [Example 207, (R)-9-((5-(3-amino-3-(5-fluoro-6-methylpyridin-2-yl)piperidin-1-yl)-2-(3-fluoro-4-methoxyphenyl)pyridin-4-yl)methyl)-9H-purin-6-amine]
  IC50: 10 to 1000 nM

## Nc1ncnc2c1ncn2Cc1cc(-c2ccc3nccn3c2)ncc1N1CCCC(N)(c2cccc(Cl)n2)C1 (stereo not drawn) [Example 210, 9-((5-(3-amino-3-(6-chloropyridin-2-yl)piperidin-1-yl)-2-(imidazo[1,2-a]pyridin-6-yl)pyridin-4-yl)methyl)-9H-purin-6-amine]
  IC50: 10 to 1000 nM

## CC(O)c1ccc([C@@]2(N)CCCN(c3cnc(-c4ccc(F)c(F)c4)cc3Cn3cnc4c(N)ncnc43)C2)nc1F (stereo partly drawn) [Example 215, 1-(6-((R)-3-amino-1-(4-((6-amino-9H-purin-9-yl)methyl)-6-(3,4-difluorophenyl)pyridin-3-yl)piperidin-3-yl)-2-fluoropyridin-3-yl)ethan-1-ol]
  IC50: 10 to 1000 nM

## Cn1cnc2ccc(-c3cc(Cn4cnc5c(N)ncnc54)c(N4CCCC(N)(c5cccc(Cl)n5)C4)cn3)cc21 (stereo not drawn) [Example 220, 9-((5-(3-amino-3-(6-chloropyridin-2-yl)piperidin-1-yl)-2-(1-methyl-1H-benzo[d]imidazol-6-yl)pyridin-4-yl)methyl)-9H-purin-6-amine]
  IC50: 10 to 1000 nM

## Nc1ncnc2c1ncn2Cc1cc(-c2ccc3ccnn3c2)ncc1N1CCCC(N)(c2cccc(Cl)n2)C1 (stereo not drawn) [Example 222, 9-((5-(3-amino-3-(6-chloropyridin-2-yl)piperidin-1-yl)-2-(pyrazolo[1,5-a]pyridin-6-yl)pyridin-4-yl)methyl)-9H-purin-6-amine]
  IC50: 10 to 1000 nM

## N#Cc1ccc(-c2cc(Cn3cnc4c(N)ncnc43)c(N3CCCC(N)(c4cccc(Cl)n4)C3)cn2)cc1F (stereo not drawn) [Example 223]
  IC50: 10 to 1000 nM

## Nc1ncnc2c1ncn2Cc1cc(-c2ccc(F)c(F)c2)ncc1N1CCCC(N)(c2ccc(Cl)nn2)C1 (stereo not drawn) [Example 249, 9-((5-(3-amino-3-(6-chloropyridazin-3-yl)piperidin-1-yl)-2-(3,4-difluorophenyl)pyridin-4-yl)methyl)-9H-purin-6-amine]
  IC50: 1 to 10 nM

## CCc1cncc([C@@]2(N)CCCN(c3cnc(-c4ccc(F)cc4)cc3Cn3cnc4c(N)ncnc43)C2)n1 [Example 250, (R)-9-((5-(3-amino-3-(6-ethylpyrazin-2-yl)piperidin-1-yl)-2-(4-fluorophenyl)pyridin-4-yl)methyl)-9H-purin-6-amine]
  IC50: 10 to 1000 nM
